Test results published in patent US11458123B2 (Arvinas, Inc., priority 2016, dated 2022).

tested on: tau protein; assay: Tau protein in vitro degradation assay (Western blot, Tau-13 antibody); format: cell-based, human; conditions: SK-N-SH cells; 72 hours of incubation; tested at 300 nM, 100 nM, 33 nM and 11 nM; Western blot, Tau-13 antibody
Summary of the method: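 Tau degradation read by Tau-13 Western blot (detects all human tau forms) of SDS-PAGE-resolved lysates from SK-N-SH cells. Cells were plated at least 18 h before 72 h exposure to PROTACs at either 1000/300/100 nM or 300/100/33/11 nM.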

Row | Structure (SMILES) | Degradation activity* (highest amount of degradation observed at any dosage; tau protein remaining)
1 | Cn1c2ccncc2c2ccc(-c3ccc(O[C@H]4C[C@H](Oc5ccc(C#CCCCCOc6ccc7c(c6)C(=O)N(C6CCC(=O)NC6=O)C7=O)nc5)C4)nc3)cc21 (some centres unmarked) [Compound 97, 2-(2,6-dioxopiperidin-3-yl)-5-((6-(5-((1r,3r)-3-((5-(5-methyl-5H-pyrido[4,3-b]indol-7-yl)pyridin-2-yl)oxy)cyclobutoxy)pyridin-2-yl)hex-5-yn-1-yl)oxy)isoindoline-1,3-dione] | B (≤80% and >50% tau protein remaining after 72 hours of incubation with the test compound)
2 | Cn1c2ccncc2c2ccc(-c3ccc(O[C@H]4C[C@H](Oc5ccc(CCCCCCOc6ccc7c(c6)C(=O)N(C6CCC(=O)NC6=O)C7=O)nc5)C4)nc3)cc21 (some centres unmarked) [Compound 98, 2-(2,6-dioxopiperidin-3-yl)-5-((6-(5-((1r,3r)-3-((5-(5-methyl-5H-pyrido[4,3-b]indol-7-yl)pyridin-2-yl)oxy)cyclobutoxy)pyridin-2-yl)hexyl)oxy)isoindoline-1,3-dione] | B (≤80% and >50% tau protein remaining after 72 hours of incubation with the test compound)
3 | Cn1c2ccncc2c2ccc(-c3ccc(O[C@H]4C[C@H](OCCCOCCCN5CC(Oc6ccc7c(c6)C(=O)N(C6CCC(=O)NC6=O)C7=O)C5)C4)nc3)cc21 (some centres unmarked) [Compound 99, 2-(2,6-dioxopiperidin-3-yl)-5-((1-(3-(3-((1r,3r)-3-((5-(5-methyl-5H-pyrido[4,3-b]indol-7-yl)pyridin-2-yl)oxy)cyclobutoxy)propoxy)propyl)azetidin-3-yl)oxy)isoindoline-1,3-dione] | A (≤50% tau protein remaining after 72 hours of incubation with the test compound)
4 | Cn1c2ccncc2c2ccc(-c3ccc(OCCCCOCCCCOC4CC5(C4)CN(c4ccc6c(c4)C(=O)N(C4CCC(=O)NC4=O)C6=O)C5)nc3)cc21 (centres unmarked) [Compound 100, 2-(2,6-dioxopiperidin-3-yl)-5-(6-(4-(4-((5-(5-methyl-5H-pyrido[4,3-b]indol-7-yl)pyridin-2-yl)oxy)butoxy)butoxy)-2-azaspiro[3.3]heptan-2-yl)isoindoline-1,3-dione] | C (>80% tau protein remaining after 72 hours of incubation with the test compound)
5 | O=C1CCC(N2C(=O)c3ccc(OC4CN(CCCOCCCO[C@H]5C[C@H](Oc6ncc(-c7ccc8c(c7)[nH]c7ccncc78)cc6C(F)(F)F)C5)C4)cc3C2=O)C(=O)N1 (some centres unmarked) [Compound 101, 5-((1-(3-(3-((1r,3r)-3-((5-(5H-pyrido[4,3-b]indol-7-yl)-3-(trifluoromethyl)pyridin-2-yl)oxy)cyclobutoxy)propoxy)propyl)azetidin-3-yl)oxy)-2-(2,6-dioxopiperidin-3-yl)isoindoline-1,3-dione] | A (≤50% tau protein remaining after 72 hours of incubation with the test compound)
6 | Cn1c2ccncc2c2ccc(-c3ccc(O[C@H]4C[C@H](Oc5ccc(C#CCCCCOc6ccc7c(c6)C(=O)N(C6CCC(=O)NC6=O)C7=O)cn5)C4)nc3)cc21 (some centres unmarked) [Compound 102, 2-(2,6-dioxopiperidin-3-yl)-5-((6-(6-((1r,3r)-3-((5-(5-methyl-5H-pyrido[4,3-b]indol-7-yl)pyridin-2-yl)oxy)cyclobutoxy)pyridin-3-yl)hex-5-yn-1-yl)oxy)isoindoline-1,3-dione] | C (>80% tau protein remaining after 72 hours of incubation with the test compound)
7 | Cn1c2ccncc2c2ccc(-c3ccc(O[C@H]4C[C@H](OCCCOCCCOC5CN(c6ccc7c(c6)C(=O)N(C6CCC(=O)NC6=O)C7=O)C5)C4)nc3)cc21 (some centres unmarked) [Compound 104, 2-(2,6-dioxopiperidin-3-yl)-5-(3-(3-(3-((1r,3r)-3-((5-(5-methyl-5H-pyrido[4,3-b]indol-7-yl)pyridin-2-yl)oxy)cyclobutoxy)propoxy)propoxy)azetidin-1-yl)isoindoline-1,3-dione] | A (≤50% tau protein remaining after 72 hours of incubation with the test compound)
8 | Cn1c2ccncc2c2ccc(-c3cnc(O[C@H]4C[C@H](OCCCOCCCN5CC(Oc6ccc7c(c6)C(=O)N(C6CCC(=O)NC6=O)C7=O)C5)C4)c(C(F)(F)F)c3)cc21 (some centres unmarked) [Compound 105, 2-(2,6-dioxopiperidin-3-yl)-5-((1-(3-(3-((1r,3r)-3-((5-(5-methyl-5H-pyrido[4,3-b]indol-7-yl)-3-(trifluoromethyl)pyridin-2-yl)oxy)cyclobutoxy)propoxy)propyl)azetidin-3-yl)oxy)isoindoline-1,3-dione] | A (≤50% tau protein remaining after 72 hours of incubation with the test compound)
9 | Cn1c2ccncc2c2ccc(-c3ccc(OC4CN(CCCCCOCCCCCOc5ccc6c(c5)C(=O)N(C5CCC(=O)NC5=O)C6=O)C4)nc3)cc21 (centres unmarked) [Compound 106, 2-(2,6-dioxopiperidin-3-yl)-5-((5-((5-(3-((5-(5-methyl-5H-pyrido[4,3-b]indol-7-yl)pyridin-2-yl)oxy)azetidin-1-yl)pentyl)oxy)pentyl)oxy)isoindoline-1,3-dione] | B (≤80% and >50% tau protein remaining after 72 hours of incubation with the test compound)
10 | Cn1c2ccncc2c2ccc(-c3ccc(OC4CC5(C4)CN(CCCCOCCCCOc4ccc6c(c4)C(=O)N(C4CCC(=O)NC4=O)C6=O)C5)nc3)cc21 (centres unmarked) [Compound 107, 2-(2,6-dioxopiperidin-3-yl)-5-(4-(4-(6-((5-(5-methyl-5H-pyrido[4,3-b]indol-7-yl)pyridin-2-yl)oxy)-2-azaspiro[3.3]heptan-2-yl)butoxy)butoxy)isoindoline-1,3-dione] | C (>80% tau protein remaining after 72 hours of incubation with the test compound)
11 | Cn1c2ccncc2c2ccc(-c3ccc(O[C@H]4C[C@H](Oc5cccc(OCCCCCCOc6ccc7c(c6)C(=O)N(C6CCC(=O)NC6=O)C7=O)n5)C4)nc3)cc21 (some centres unmarked) [Compound 108, 2-(2,6-dioxopiperidin-3-yl)-5-((6-((6-((1r,3r)-3-((5-(5-methyl-5H-pyrido[4,3-b]indol-7-yl)pyridin-2-yl)oxy)cyclobutoxy)pyridin-2-yl)oxy)hexyl)oxy)isoindoline-1,3-dione] | C (>80% tau protein remaining after 72 hours of incubation with the test compound)
12 | Cn1c2ccncc2c2ccc(-c3ccc(O[C@H]4C[C@H](Oc5ccnc(OCCCCCCOc6ccc7c(c6)C(=O)N(C6CCC(=O)NC6=O)C7=O)c5)C4)nc3)cc21 (some centres unmarked) [Compound 109, 2-(2,6-dioxopiperidin-3-yl)-5-((6-((4-((1r,3r)-3-((5-(5-methyl-5H-pyrido[4,3-b]indol-7-yl)pyridin-2-yl)oxy)cyclobutoxy)pyridin-2-yl)oxy)hexyl)oxy)isoindoline-1,3-dione] | C (>80% tau protein remaining after 72 hours of incubation with the test compound)
13 | Cn1c2ccncc2c2ccc(-c3ccc(O[C@H]4C[C@H](Oc5ccc(CCCCCCOc6ccc7c(c6)C(=O)N(C6CCC(=O)NC6=O)C7=O)cn5)C4)nc3)cc21 (some centres unmarked) [Compound 110, 2-(2,6-dioxopiperidin-3-yl)-5-((6-(6-((1r,3r)-3-((5-(5-methyl-5H-pyrido[4,3-b]indol-7-yl)pyridin-2-yl)oxy)cyclobutoxy)pyridin-3-yl)hexyl)oxy)isoindoline-1,3-dione] | C (>80% tau protein remaining after 72 hours of incubation with the test compound)
14 | Cn1c2ccncc2c2ccc(-c3ccc(O[C@H]4C[C@H](Oc5ccc(C#CCOC6CN(c7ccc8c(c7)C(=O)N(C7CCC(=O)NC7=O)C8=O)C6)nc5)C4)nc3)cc21 (some centres unmarked) [Compound 111, 2-(2,6-dioxopiperidin-3-yl)-5-(3-((3-(5-((1r,3r)-3-((5-(5-methyl-5H-pyrido[4,3-b]indol-7-yl)pyridin-2-yl)oxy)cyclobutoxy)pyridin-2-yl)prop-2-yn-1-yl)oxy)azetidin-1-yl)isoindoline-1,3-dione] | C (>80% tau protein remaining after 72 hours of incubation with the test compound)
15 | Cn1c2ccncc2c2c(F)c(F)c(-c3ccc(OCCOCCOCCOCCOCCOc4ccc5c(c4)C(=O)N(C4CCC(=O)NC4=O)C5=O)nc3)cc21 (centres unmarked) [Compound 112, 5-((14-((5-(8,9-difluoro-5-methyl-5H-pyrido[4,3-b]indol-7-yl)pyridin-2-yl)oxy)-3,6,9,12-tetraoxatetradecyl)oxy)-2-(2,6-dioxopiperidin-3-yl)isoindoline-1,3-dione] | A (≤50% tau protein remaining after 72 hours of incubation with the test compound)
16 | Cn1c2ccncc2c2ccc(-c3cnc(OCCOCCOCCOCCOCCOc4ccc5c(c4)C(=O)N(C4CCC(=O)NC4=O)C5=O)cc3Cl)cc21 (centres unmarked) [Compound 113, 5-((14-((4-chloro-5-(5-methyl-5H-pyrido[4,3-b]indol-7-yl)pyridin-2-yl)oxy)-3,6,9,12-tetraoxatetradecyl)oxy)-2-(2,6-dioxopiperidin-3-yl)isoindoline-1,3-dione] | C (>80% tau protein remaining after 72 hours of incubation with the test compound)
17 | Cn1c2ccncc2c2ccc(-c3ccc(O[C@H]4C[C@H](OCCCCOCCCCCOc5ccc6c(c5)C(=O)N(C5CCC(=O)NC5=O)C6=O)C4)nc3)cc21 (some centres unmarked) [Compound 114, 2-(2,6-dioxopiperidin-3-yl)-5-((5-(4-((1r,3r)-3-((5-(5-methyl-5H-pyrido[4,3-b]indol-7-yl)pyridin-2-yl)oxy)cyclobutoxy)butoxy)pentyl)oxy)isoindoline-1,3-dione] | C (>80% tau protein remaining after 72 hours of incubation with the test compound)
